Tests used:
[1] = system: HepG2 cells; assay: MTT growth inhibition time course, alone or with gemcitabine; type: cell-based; details: Homo sapiens, HepG2, 10 μmol/L
Experimental: In addition, the growth-inhibitory effects of ART and DHA and the effects in combination with gemcitabine in HepG2 and Hep3B cells may also be determined using the MTT assay. Briefly, 700 cells per well may be plated in 96-well culture plates. After a 24-h incubation, the cells may be treated with 10 μmol/L ART, 10 μmol/L DHA, 10 μg/L gemcitabine, 10 μmol/L ART plus 10 μg/L gemcitabine, or 10 μmol/L DHA plus 10 μg/L gemcitabine for various times (0, 24, 48, 72, and 96 h). The results reflect the average of three replicates.

[2] = system: HepG2 xenograft tumors; assay: HepG2 xenograft model in nude mice; type: in vivo; details: for tumor growth inhibition: HepG2 xenograft, 5 d/wk for 4 wk
Experimental: Female athymic nude mice (nu/nu; 4-6 wk of age) may be obtained from Shanghai Slac Laboratory Animal Co. Ltd. All animals may be fed with commercial diet and water ad libitum. The human HCC xenograft models in mice may be as follows. Briefly, HepG2 and Hep3B cells may be re-suspended in serum-free DMEM with Matrigel basement membrane matrix at a 5:1 ratio. The cell suspension may then be injected (7×10^6 cells; total volume, 0.2 mL) into the left inguinal area of the BALB/c nude mice. The animals may be monitored for activity and physical condition everyday, and the determination of body weight and measurement of tumor mass may be done every 3 d. Tumor mass may be determined by caliper measurement in two perpendicular diameters of the implant and calculated using the formula ½a×b^2, where a stands for the long diameter and b is the short diameter. The animal use and care protocol is approved by the Institutional Review Board of the Institute for Nutritional Sciences, Chinese Academy of Sciences.
Nude mice bearing HepG2 and Hep3B xenografts, randomly divided into various treatment and control groups (five mice per group), may be treated orally with either ART or DHA suspended in 5% sesame oil+95% saline, at a dose of 50 or 100 mg/kg/d, or a combination of ART or DHA with gemcitabine or with saline (as controls). In the mice receiving combination therapy, 80 mg/kg gemcitabine, representing one fifth of the reported most tolerated dose in mice, may be administered i.p. on days 7, 11, and 15 to avoid possible side effects and to illustrate potential chemo-sensitization effects in this combination regimen.

[3] = system: Huh-7 hepatoma cells (p53 mutant); assay: MTT cell viability assay, Huh-7; type: cell-based; details: Homo sapiens, Huh-7 (p53 mutant), 48 h
Experimental: (§1) The effects of ART derivatives on the viability of the aforementioned cells may be determined using the MTT assay. Briefly, 2,000 cells per well were plated in triplicate in 96-well plates. After a 24-h incubation, the cells may be treated with varying concentrations of ART derivatives (0, 1, 5, 10, 25, 50, and 100 μmol/L) for 48 h. The MTT assay may be performed according to the manufacture's instruction and the resultant formazan crystals may be dissolved in DMSO (100 μL). The absorbance may be then recorded at 540 nm. The effects of ART derivatives on cell viability may be assessed by comparing the percent cell viability of the treated cells with the vehicle (DMSO)-treated control cells, which may be arbitrarily assigned at 100% viability. The experiment may be repeated thrice under the same conditions.

[4] = system: four hepatoma cell lines (HepG2, Hep3B, Huh-7, BEL-7404); assay: MTT assay, mean over four hepatoma cell lines; type: cell-based; details: Homo sapiens, mean of HepG2, Hep3B, read-out: overall mean IC50 in the four hepatoma cell lines
Experimental: as §1

[5] = system: 7702 normal human liver cells; assay: MTT cell viability assay, normal liver cells; type: cell-based; details: 7702 cells, 48 h; for IC20: read-out: IC20 (concentration that reduces growth by 20%)
Experimental: as §1

[6] = system: Hep3B cells; assay: Annexin V-FITC apoptosis assay, Hep3B; type: cell-based, human
Experimental: ART- and DHA-induced apoptosis alone or in combination with gemcitabine in HepG2 and Hep3B cells or in combination with carboplatin in ovarian cancer cells may be determined by flow cytometry using the Annexin V-FITC Apoptosis Detection kit following the manufacturer's instructions. Briefly, 2×10^5 cells may be treated with ART and DHA ([…]) or 10 μg/L gemcitabine for 48 h. The cells may then be harvested, washed in PBS, and incubated with Annexin V and propidium iodide for staining in binding buffer at room temperature for 10 min in the dark. The stained cells may be analyzed using the FACSAria instrument.

[7] = system: HepG2 cells; assay: Cell cycle analysis (propidium iodide, flow cytometry), HepG2; type: cell-based, human
Experimental: (§2) Cells (2×10^5) may be treated with ART and DHA (0, 1, 10, 25, and 50 μmol/L) as described above for 48 h. The harvested cells may be re-suspended in 200 μL of cold PBS, to which cold ethanol (600 μl) may be added, and the mixture may then be incubated for 2 h at 4° C. After centrifugation, the pellet may be washed with cold PBS, suspended in 500 μL PBS, and incubated with 50 μL RNase (20 μg/mL final concentration) for 30 min. The cells may be incubated with propidium iodide (50 μg/mL final concentration) for 30 min in the dark. The cell cycle distribution may be determined using a FACSAria instrument (BD Biosciences). The experiment may be repeated thrice under the same conditions.

[8] = system: A2780 ovarian carcinoma cells; assay: MTT cell viability assay, A2780; type: cell-based; details: Homo sapiens, A2780, 48 hrs
Description: Human ovarian IOSE144 (immortalized non-tumorigenic human ovarian surface epithelial cells) and ovarian carcinoma (A2780 and OVCAR-3) cells that may be obtained from the American Type Culture Collection (ATCC, Manassas, Va.) are gifts from Dr. Jing Fang (Institute for Nutritional Sciences, Shanghai, China). All cells may be cultured according to the ATCC instructions. The compounds (ARS, ART, ARM and DHA) may be dissolved in DMSO (<0.1%, final concentration).
as §1

[9] = system: Hep3B cells; assay: Cell cycle analysis (propidium iodide, flow cytometry), Hep3B; type: cell-based, human; details: 48 h
Experimental: as §2

[10] = HepG2 xenograft tissue, Western blot
[11] = 1 μmol/L, 48 h (0 μmol/L: 0.8%)
[12] = HepG2, 10 μmol/L, 48 h (control 63.05%)

| Compound | inhibition at 10 µM ([1]; 24 h, vs vehicle-treated cells) [%] | inhibition at 10 µM ([1]; 48 h) [%] | inhibition at 10 µM ([1]; 72 h) [%] | tumor growth inhibition ([2]; oral 50 mg/kg/d) [%] | tumor growth inhibition ([2]; oral 100 mg/kg/d) [%] | IC20 [3] [µM] | IC50 [3] [µM] | IC80 [3] [µM] | IC50 [4] [µM] | IC80 ([5]; Homo sapiens) [µM] | IC20 ([5]; Homo sapiens) [µM] | apoptotic cells [6, 11] [%] | apoptotic cells ([6]; 10 μmol/L, 48 h) [%] | apoptotic cells ([6]; 25 μmol/L, 48 h) [%] | apoptotic cells ([6]; 50 μmol/L, 48 h) [%] | cells in the G1 phase [7, 12] [%] | cells in the G1 phase ([7]; HepG2, 25 μmol/L, 48 h) [%] | cells in the G1 phase ([7]; HepG2, 50 μmol/L, 48 h) [%] | IC20 [8] [µM] | IC50 [8] [µM] | other results |
| --- | --- | --- | --- | --- | --- | --- | --- | --- | --- | --- | --- | --- | --- | --- | --- | --- | --- | --- | --- | --- | --- |
| C[C@@H]1CC[C@H]2[C@@H](C)C(=O)O[C@@H]3O[C@@]4(C)CC[C@@H]1[C@]32OO4 [ART, artemisinin] | 69 | 92 | 96 | 30.0 | 39.4 | 0.7 | 8.9 | 115 | 10.8 | > 500 | 3.6 | 2.25 | 2.65 | 4.8 | 25.3 | 67.41 | 70.72 | 69.21 | 0.73 | 17.6 | G1-specific Cdks, cyclin D1, cyclin E, Cdk2, Cdk4, and E2F1 in tumor tissue [2, 10]: decrease; MDM2 in tumor tissue [2, 10]: decrease; activated caspase-3, cleaved PARP, Rb, p53, and the ratio of Bax/Bcl-2 in tumor tissue [2, 10]: increases; p21 and p27 in tumor tissue [2, 10]: increase; IC50 [5]: 60.9 µM; IC50 ([5]; Homo sapiens): ≥ 60.9 µM; IC80 [8]: 426 µM; cells in the G1 phase ([9]; 1 μmol/L): 66.11%; cells in the G1 phase ([9]; 10 μmol/L): 67.48%; cells in the G1 phase ([9]; 25 μmol/L): 68.70%; cells in the G1 phase ([9]; 50 μmol/L): 62.99% |
| C[C@H]1[C@@H](O)O[C@@H]2O[C@@]3(C)CC[C@H]4[C@H](C)CC[C@@H]1[C@@]24OO3 [DHA, dihydroartemisinin] | 74 | 93 | 97 | 36.1 | 60.6 | 0.7 | 9.6 | 131 | 10.6 | > 500 | 3.8 | 2.15 | 12.9 | 28.75 | 31.05 | 69.36 | 70.91 | 72.03 | 0.83 | 16.4 | toxic effects based on observations of bodyweight ([2]; HepG2 xenograft mice, alone or in combination with gemcitabine): neither ART nor DHA causes any observable toxic effects; IC80 [8]: 328 µM; cells in the G1 phase ([9]; 1 μmol/L): 68.11%; cells in the G1 phase ([9]; 10 μmol/L): 69.03%; cells in the G1 phase ([9]; 25 μmol/L): 70.50%; cells in the G1 phase ([9]; 50 μmol/L): 62.99% |

From patent US20100279976A1, “USE OF ARTEMISININ AND ITS DERIVATIVES IN CANCER THERAPY” (SHANGHAI INSTITUTES FOR BIOLOGICAL SCIENCES, CAS, priority 2009, published 2010)
